{
  "source": "patent US20070276011A1",
  "about": "“Plasminogen Activator Inhibitor-1 Inhibitor” (priority 2003, published 2007)",
  "key": {"[1]": {"molecular_target": "T1, recombinant human PAI-1 (Homo sapiens, UniProt P05121)", "T1 sequence (P05121 24-402)": "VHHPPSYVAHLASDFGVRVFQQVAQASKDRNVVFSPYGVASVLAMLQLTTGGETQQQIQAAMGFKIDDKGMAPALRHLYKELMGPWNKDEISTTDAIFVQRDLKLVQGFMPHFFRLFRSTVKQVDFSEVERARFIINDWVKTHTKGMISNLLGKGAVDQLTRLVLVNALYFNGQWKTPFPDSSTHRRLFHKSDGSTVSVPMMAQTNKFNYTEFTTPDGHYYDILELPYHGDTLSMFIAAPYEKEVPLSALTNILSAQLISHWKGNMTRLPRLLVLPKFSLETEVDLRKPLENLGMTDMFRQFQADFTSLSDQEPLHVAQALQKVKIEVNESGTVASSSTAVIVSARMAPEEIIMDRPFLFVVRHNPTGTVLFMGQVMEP", "test": "Inhibition of complex formation of PAI-1 and tPA (SDS-PAGE)", "assay_type": "biochemical", "conditions": "100 μM concentration", "protocol": "To a 2.5 μL solution obtained by diluting a DMSO solution of the test compound at 4-fold concentration of the test concentration with PBS(-), 5 μL of 150 nM recombinant human PAI-1 solution adjusted with a phosphate buffer (pH6.6, 0.05M Sodium Phosphate, 0.1 M NaCl, 1 mM EDTA) was added, and reacted for 5 minutes at 37° C. […] of 600 nM recombinant human one-chain tPA solution adjusted with PBS(-) was added, and further reacted for 5 minutes at 37° C. 10 μL of stop buffer (1.25 mM Tris-HCl pH6.8, 4% SDS, 0.01% BPB, 14% Glycerol) was added, heated for 30 seconds at 100° C., and then the total amount of 20 μL was applied to 10% SDS-PAGE gel electrophoresis. When the test compound was not added as being a control, a band of PAI-1-tPA complex was observed."}, "[2]": {"system": "mouse heart transplantation model", "test": "Tests in mouse (murine) heart transplantation model", "assay_type": "in vivo", "conditions": "p<0.05"}, "[3]": {"molecular_target": "T1, recombinant human PAI-1", "test": "PAI-1 inhibitory activity, Test Method A (tPA fluorogenic substrate, Tris buffer pH8.0, 37 C)", "assay_type": "biochemical"}, "[4]": {"system": "rat thrombosis model", "test": "Tests in rat thrombosis model (carotid shunt, thrombus weight)", "assay_type": "in vivo", "conditions": "intraperitoneally 30 mg/kg/day for 8 days beforehand, control 94.9±3.3 mg, n=4, p<0.01", "protocol": "Catheters for shunt were inserted into the right carotid artery and the left carotid artery of a rat, blood was circulated for 30 minutes, and weights of thromboses adhered to threads placed inside the catheters were measured."}},
  "data": [
    {"molecule": "O=C1SC(=Cc2cc(O)c(O)c(O)c2)C(=O)N1Cc1ccc(Cl)c(Cl)c1", "note": "[compound 10, 5-(3,4,5-Trihydroxybenzylidene)-3-(3,4-dichlorobenzyl)thiazolidine-2,4-dione]", "values": [
      {"measurement": "inhibition of the complex formation of PAI-1 and tPA observed with SDS-PAGE", "setting": "[1]", "value": "completely inhibited"},
      {"measurement": "ratio of fibrous lesion 60 days after the transplantation", "setting": "[2]; class II mismatch allograft, control 44.5±2.7%, n=5", "value": "18.8±2.2", "unit": "%"},
      {"measurement": "Vascular endothelial hyperplasia (ratio of thickened endothelium to the internal elastic lamina); incidence of vascular intimal thickening", "setting": "[2]; class II mismatch allograft, control 64.5±5.8%", "value": "21.7±4.9", "unit": "%"},
      {"measurement": "graft survival", "setting": "[2]; major mismatch allograft Balb/c to C57BL/6, intraperitoneally 20 mg/kg/day, control 7.2±0.2 days", "value": "9.0 ± 0.7", "unit": "days"},
      {"measurement": "IC50", "setting": "[3]; 50% inhibitory concentration of PAI-1 activity, according to the aforementioned method", "value": 450, "unit": "nM"},
      {"measurement": "Inhibitory Ratio at 25 μM (%)", "setting": "[3]; test compound 25 μM, Test Method A", "value": ">99", "unit": "%"},
      {"measurement": "weight of thrombus", "setting": "[4]", "value": "67.2 ± 6.3", "unit": "mg"}
    ]}
  ]
}
